# Results published in the CheMixHub ionic liquid set.
# ± gives the uncertainty stated by the source.
# Experiment: xn = mol fraction of the nth substance listed
compound,measurement,setting,value
O=S(=O)([N-]S(=O)(=O)C(F)(F)F)C(F)(F)F.[K+] + O=S(=O)([N-]S(=O)(=O)C(F)(F)F)C(F)(F)F.[Li+],electrical conductivity,"442.3 K, 100 kPa, frequency 1 MHz, x2 = 0.43",0.359 ± 0.038 S/m
same,viscosity,"442.5 K, 100 kPa, x2 = 0.43",179 ± 19 mPa·s
same,electrical conductivity,"452.3 K, 100 kPa, frequency 1 MHz, x2 = 0.43",0.479 ± 0.05 S/m
same,viscosity,"452.5 K, 100 kPa, x2 = 0.43",127 ± 14 mPa·s
same,electrical conductivity,"462.7 K, 100 kPa, frequency 1 MHz, x2 = 0.43",0.624 ± 0.064 S/m
same,viscosity,"463 K, 100 kPa, x2 = 0.43",90 ± 9.6 mPa·s
same,electrical conductivity,"473.6 K, 100 kPa, frequency 1 MHz, x2 = 0.43",0.794 ± 0.081 S/m
same,viscosity,"473.9 K, 100 kPa, x2 = 0.43",63.7 ± 6.7 mPa·s
same,electrical conductivity,"483 K, 100 kPa, frequency 1 MHz, x2 = 0.43",0.99 ± 0.1 S/m
same,viscosity,"483.1 K, 100 kPa, x2 = 0.43",50.6 ± 5.2 mPa·s
same,electrical conductivity,"492.3 K, 100 kPa, frequency 1 MHz, x2 = 0.43",1.19 ± 0.12 S/m
same,viscosity,"492.6 K, 100 kPa, x2 = 0.43",39.1 ± 4 mPa·s
same,electrical conductivity,"502.3 K, 100 kPa, frequency 1 MHz, x2 = 0.43",1.42 ± 0.14 S/m
same,viscosity,"502.5 K, 100 kPa, x2 = 0.43",31.6 ± 3.2 mPa·s
same,electrical conductivity,"512.6 K, 100 kPa, frequency 1 MHz, x2 = 0.43",1.66 ± 0.17 S/m
same,viscosity,"512.8 K, 100 kPa, x2 = 0.43",26.4 ± 2.7 mPa·s
same,electrical conductivity,"523.4 K, 100 kPa, frequency 1 MHz, x2 = 0.43",1.93 ± 0.2 S/m
same,viscosity,"523.6 K, 100 kPa, x2 = 0.43",21.8 ± 2.2 mPa·s
same,electrical conductivity,"531.6 K, 100 kPa, frequency 1 MHz, x2 = 0.43",2.25 ± 0.23 S/m
same,viscosity,"531.9 K, 100 kPa, x2 = 0.43",18.4 ± 1.9 mPa·s
same,electrical conductivity,"543 K, 100 kPa, frequency 1 MHz, x2 = 0.43",2.48 ± 0.25 S/m
same,viscosity,"543.5 K, 100 kPa, x2 = 0.43",14.6 ± 1.5 mPa·s
same,electrical conductivity,"552.2 K, 100 kPa, frequency 1 MHz, x2 = 0.43",2.77 ± 0.28 S/m
same,viscosity,"552.5 K, 100 kPa, x2 = 0.43",13.6 ± 1.4 mPa·s
same,electrical conductivity,"561.6 K, 100 kPa, frequency 1 MHz, x2 = 0.43",3.1 ± 0.31 S/m
same,viscosity,"561.8 K, 100 kPa, x2 = 0.43",12.5 ± 1.3 mPa·s
same,electrical conductivity,"571.3 K, 100 kPa, frequency 1 MHz, x2 = 0.43",3.53 ± 0.36 S/m
CCCCn1cc[n+](C)c1C.O=S(=O)([N-]S(=O)(=O)C(F)(F)F)C(F)(F)F + O=C1CCCO1,electrical conductivity,"293.15 K, 100 kPa, frequency 0.005 MHz, x2 = 0.1014",0.207 ± 0.006 S/m
same,electrical conductivity,"293.15 K, 100 kPa, frequency 0.005 MHz, x2 = 0.3",0.302 ± 0.009 S/m
same,electrical conductivity,"293.15 K, 100 kPa, frequency 0.005 MHz, x2 = 0.8001",1.12 ± 0.034 S/m
same,electrical conductivity,"298.15 K, 100 kPa, frequency 0.005 MHz, x2 = 0.8996",1.3 ± 0.039 S/m
same,electrical conductivity,"303.15 K, 100 kPa, frequency 0.005 MHz, x2 = 0.3",0.451 ± 0.014 S/m
same,electrical conductivity,"303.15 K, 100 kPa, frequency 0.005 MHz, x2 = 0.9468",1.01 ± 0.033 S/m
same,electrical conductivity,"308.15 K, 100 kPa, frequency 0.005 MHz, x2 = 0.3",0.538 ± 0.016 S/m
same,electrical conductivity,"308.15 K, 100 kPa, frequency 0.005 MHz, x2 = 0.7012",1.28 ± 0.039 S/m
same,electrical conductivity,"313.15 K, 100 kPa, frequency 0.005 MHz, x2 = 0.1014",0.479 ± 0.014 S/m
same,electrical conductivity,"313.15 K, 100 kPa, frequency 0.005 MHz, x2 = 0.7012",1.43 ± 0.043 S/m
same,electrical conductivity,"318.15 K, 100 kPa, frequency 0.005 MHz, x2 = 0",0.51 ± 0.015 S/m
same,electrical conductivity,"318.15 K, 100 kPa, frequency 0.005 MHz, x2 = 0.7012",1.58 ± 0.047 S/m
same,electrical conductivity,"323.15 K, 100 kPa, frequency 0.005 MHz, x2 = 0",0.599 ± 0.018 S/m
[N-]=C=S.[NH4+] + CCOS(=O)(=O)[O-].CC[n+]1ccn(C)c1,electrical conductivity,"298.15 K, 101 kPa, x1 = 0.0235",0.373 ± 0.012 S/m
same,viscosity,"298.15 K, 101 kPa, x1 = 0.0235",103.1 ± 1.7 mPa·s
same,electrical conductivity,"298.15 K, 101 kPa, x1 = 0.3025",0.285 ± 0.0091 S/m
same,electrical conductivity,"303.15 K, 101 kPa, x1 = 0.565",0.375 ± 0.012 S/m
same,viscosity,"303.15 K, 101 kPa, x1 = 0.565",172.5 ± 4.4 mPa·s
same,electrical conductivity,"308.15 K, 101 kPa, x1 = 0.3025",0.439 ± 0.014 S/m
same,viscosity,"308.15 K, 101 kPa, x1 = 0.3025",129.6 ± 2.6 mPa·s
same,electrical conductivity,"308.15 K, 101 kPa, x1 = 0.4042",0.436 ± 0.014 S/m
same,viscosity,"308.15 K, 101 kPa, x1 = 0.4042",140.9 ± 3.1 mPa·s
same,electrical conductivity,"313.15 K, 101 kPa, x1 = 0.5997",0.59 ± 0.019 S/m
same,electrical conductivity,"318.15 K, 101 kPa, x1 = 0.5205",0.656 ± 0.021 S/m
same,viscosity,"318.15 K, 101 kPa, x1 = 0.5205",86.9 ± 1.4 mPa·s
same,electrical conductivity,"318.15 K, 101 kPa, x1 = 0.565",0.728 ± 0.023 S/m
same,viscosity,"318.15 K, 101 kPa, x1 = 0.565",85.3 ± 1.3 mPa·s
same,electrical conductivity,"323.15 K, 101 kPa, x1 = 0.565",0.868 ± 0.028 S/m
same,viscosity,"323.15 K, 101 kPa, x1 = 0.565",69.75 ± 0.94 mPa·s
same,viscosity,"333.15 K, 101 kPa, x1 = 0.0235",26.54 ± 0.25 mPa·s
same,viscosity,"333.15 K, 101 kPa, x1 = 0.3025",50.29 ± 0.58 mPa·s
same,viscosity,"333.15 K, 101 kPa, x1 = 0.4042",53.18 ± 0.64 mPa·s
same,viscosity,"333.15 K, 101 kPa, x1 = 0.5997",47.67 ± 0.62 mPa·s
O=S(=O)([N-]S(=O)(=O)C(F)(F)F)C(F)(F)F.[Li+] + CC#N,viscosity,"293 K, 100 kPa, x1 = 0.25",17.9 ± 1.3 mPa·s
same,electrical conductivity,"303.15 K, 100 kPa, x1 = 0.02067",2.79 ± 0.22 S/m
same,electrical conductivity,"303.15 K, 100 kPa, x1 = 0.03069",3.23 ± 0.26 S/m
same,electrical conductivity,"308.15 K, 100 kPa, x1 = 0.03069",3.34 ± 0.27 S/m
same,electrical conductivity,"308.15 K, 100 kPa, x1 = 0.04052",3.85 ± 0.31 S/m
same,electrical conductivity,"308.15 K, 100 kPa, x1 = 0.05013",4.25 ± 0.34 S/m
same,electrical conductivity,"308.15 K, 100 kPa, x1 = 0.07787",4.14 ± 0.33 S/m
same,electrical conductivity,"313.15 K, 100 kPa, x1 = 0.02067",3.03 ± 0.24 S/m
same,electrical conductivity,"313.15 K, 100 kPa, x1 = 0.07787",4.35 ± 0.35 S/m
same,electrical conductivity,"318.15 K, 100 kPa, x1 = 0.04052",4.16 ± 0.33 S/m
same,electrical conductivity,"318.15 K, 100 kPa, x1 = 0.05013",4.64 ± 0.37 S/m
same,electrical conductivity,"323.15 K, 100 kPa, x1 = 0.05957",4.97 ± 0.4 S/m
same,electrical conductivity,"328.15 K, 100 kPa, x1 = 0.05013",4.99 ± 0.4 S/m
same,electrical conductivity,"328.15 K, 100 kPa, x1 = 0.05957",5.14 ± 0.41 S/m
same,electrical conductivity,"333.15 K, 100 kPa, x1 = 0.05957",5.28 ± 0.42 S/m
CCCCCO + CCCC[n+]1ccn(C)c1.N#C[S-],viscosity,"298.15 K, 101 kPa, x1 = 1",3.37 ± 0.01 mPa·s
